These results are taken from patent US20240099989A1, “AGENT FOR PREVENTING OR IMPROVING PERIPHERAL NEUROPATHY” (KINKI UNIVERSITY, priority 2021, published 2024).

This assay deals with Diabetic Peripheral Neuropathy in a Mouse Induced by Streptozotocin. Nature of the assay: Cold plate test (4° C.), diabetic peripheral neuropathy induced by streptozotocin. It is filed as in vivo, C57BL/6J mice. Conditions: time course. The protocol:
Six to seven-week-old male C57BL/6J mice were used for the tests as with Example 7. All the mice were acclimated for seven days after arrival. Then, the mice were grouped into the following four groups: a control group, a group receiving streptozotocin, a group receiving 1 mg/kg xylitol, and a group receiving streptozotocin+1 mg/kg xylitol. Each group consisted of nine mice.
The mice in the group receiving 1 mg/kg xylitol were orally administered with xylitol at a dose of 1 mg/kg daily from Day 0. The mice in the group receiving streptozotocin+1 mg/kg xylitol were orally administered with xylitol at a dose of 1 mg/kg daily from Day 21 of administration.
A cold plate test was performed to examine the effect due to xylitol on paresthesia that is caused by a low temperature stimulus. The mice in the four groups described in (1) of the present example (Example 8) were placed on a cold plate set at 4° C., and withdrawal response time (latent time) was measured. It is presumed that a shorter withdrawal response time (latent time) reflects a greater degree of shunning the low temperature stimulus by the cold plate. […]
On Day 8 of acclimation, the mice in the group receiving streptozotocin and the group receiving streptozotocin+5 mg/kg D-threitol were administered with streptozotocin at a dose of 200 mg/kg. A massive dose of streptozotocin destroys pancreatic cells in the mice. As a result, insulin is no longer secreted, and thus, diabetes can be developed in the mice. This day was designated as the first day of the administration (Day 0). Note that streptozotocin was administered only on the first day of administration.
The mice in the group receiving 5 mg/kg D-threitol and the group receiving streptozotocin+5 mg/kg D-threitol were orally administered with D-threitol at a dose of 5 mg/kg daily from Day 0. […]
The mice in the group receiving 5 mg/kg D-threitol were orally administered with D-threitol at a dose of 5 mg/kg daily from Day 0. The mice in the group receiving streptozotocin+5 mg/kg D-threitol were orally administered with D-threitol at a dose of 5 mg/kg daily from Day 21 of administration.
A cold plate test was performed to examine the effect of D-threitol on paresthesia that is caused by a low temperature stimulus. The mice in the four groups described in (1) of the present example (Example 10) were placed on a cold plate set at 4° C., and withdrawal response time (latent time) was measured. […]
A cold plate test was performed to examine the effect of L-talitol on paresthesia that is caused by a low temperature stimulus. The mice in the four groups described in (1) of the present example (Example 11) were placed on a cold plate set at 4° C., and withdrawal response time (latent time) was measured. […]

Where [1] appears, read: streptozotocin 200 mg/kg + 5 mg/kg orally daily from Day 21 (therapy).

Consider `OC[C@@H](O)[C@H](O)CO` [D-threitol], for which the “withdrawal response time (latent time)” value under setting [1] is recorded as “extended from Day 21 onwards”.

Consider `OC[C@@H](O)[C@H](O)[C@@H](O)CO` [xylitol], for which the “withdrawal response time (latent time)” value (streptozotocin 200 mg/kg + 1 mg/kg orally daily from Day 21 (therapy)) is given as “extended from Day 21 onwards”.

For `OC[C@H](O)[C@H](O)[C@H](O)[C@@H](O)CO` [L-talitol], the “withdrawal response time (latent time)” value under setting [1] is recorded as “extended from Day 21 onwards”.
